The source of these data is patent US5605928A, “Antiemetic compositions” (Yissum Research Development Company of The Hebrew …, priority 1992, dated 1997).

Data set [1] has as its system vomiting due to antineoplastic therapy. Put plainly: Previous antiemetic treatment of patient 1 with Metoclopromide. In kind it is in vivo, human. Conditions: patient 1, 0.3 mg/kg p.o. or i.v.
Data set [2] has as its system vomiting and nausea in cancer therapy. Put plainly: Comparison of delta-8-THC with delta-9-THC for antiemetic use (effectiveness, side effects). In kind it is in vivo, human. As to conditions: compared with delta-9-THC.
The nature of data set [3]: Stability towards chemicals and oxidation, compared with delta-9-THC. The data set is classed as physicochemical. Conditions: compared with delta-9 isomer.
For data set [4], the system named is vomiting due to antineoplastic therapy in children with various blood cancers. Put plainly: Antiemetic trial of delta-8-THC in 8 children receiving antineoplastic therapy (prevention of vomiting, side effects). In kind it is in vivo, human (children). The procedure: In a trial, with 8 children of 3 to 13 years age, with various blood cancers, treated with a variety of antineoplastic drugs, 18 mg/m^2, in edible oil, p.o. of delta-8-THC was given two hours before the antineoplastic drug, and repeated every 6 hours of 24 hours. […] So far these children have received Δ^8 -THC nearly 500 times (see Table).
Eight children with various blood cancers were administered delta-8-THC at a dose of 18 mg/m^2 p.o. two hours before the start of the anticancer treatment. The drug was dissolved in corn or olive oil (6 mg/ml). The same dose was repeated every 6 hrs for 24 hrs. Whenever additional cycles of antineoplastic therapy were required, delta-8-THC was administered following the same time procedure described above. Children received delta-8-THC only during days when emetogenic drugs were administered.
Established anticancer drug protocols were followed with all patients.
(§1) A study on vomiting due to antineoplastic therapy was carried out with 8 patients. Chemotherapy protocols of the types indicated in the Table almost invariable cause intense vomiting, which starts about 2 hrs after the initiation of chemotherapy and gradually ends over a 24 hr period. In preliminary trials we tried to end the antiemetic therapy after the first or second dose of the cannabinoid, i.e. after 6 or 12 hrs. […] In one case (patient) delta-8-THC therapy initially was refused. The patient experienced debilitating vomiting for 24 hrs after the antineoplastic treatment. During the second treatment cycle (which took place after 8 days), at the patient's family request, delta-8-THC treatment was initiated.
Our antiemetic protocol for cancer patients, to which we strictly adhere, consists of one dose of delta-8-THC (18 mg/m^2) 2 hours before chemotherapy, followed by the same dose every 6 hours for a total of 4 doses per day.

For a further data set, the system named is Fischer rats. Put plainly: Acute oral toxicity, single doses, observed for 7 days. The data set is classed as in vivo. Conditions: extremely high oral doses, delta-8- vs delta-9-THC.
Assay in data set [5]: as above
The data set is classed as in vivo. Conditions: rat, in vivo; Fischer rats, male, single oral dose, observed 7 days; read-out: LD50, males.

The next data set deals with dogs. Put plainly: Acute oral toxicity, single doses. In kind it is in vivo. Conditions: single oral doses up to 9000 mg/kg. The procedure:
(§2) LD50 could not be determined in either rhesus monkeys or dogs as single oral doses of up to 9000 mg/kg of either delta-8- or delta-9-THC in dogs or monkeys were non lethal.

The next data set concerns rhesus monkeys. Put plainly: Acute oral toxicity, single doses. The data set is classed as in vivo. Conditions: single oral doses up to 9000 mg/kg. The procedure: as §2
Data set [6] in a line: Acute oral toxicity, single doses. The data set is classed as in vivo. Conditions: in vivo, single oral dose, read-out: LD50 (could not be determined; single oral doses up to this dose non lethal). How it is done:
as §2

The subject of data set [7] is vomiting due to antineoplastic therapy. Put plainly: Preliminary trials ending the antiemetic therapy after first or second dose. In kind it is in vivo, human. As to conditions: therapy ended after first or second dose, i.e. after 6 or 12 hrs. How it is done: as §1
The subject of data set [8] is vomiting and nausea in chemotherapy patients. Conditions: cited from earlier work.
Setting [9] is: chemotherapy of cancer, treated patients.

Molecules are shown by their SMILES. “Also recorded” adds a separate entry of the source. Read-outs that look alike come from different tables or passages of the source. Some results are limits rather than exact numbers.

Take `CCN(CC)CCNC(=O)c1cc(Cl)c(N)cc1OC` [Metoclopromide]: the Prevention of vomiting result in data set [1] was “failed to”.

As a reminder, the LD50 is the dose expected to kill half of the subjects tested. Regarding `CCCCCc1cc(O)c2c(c1)OC(C)(C)[C@@H]1CC=C(C)C[C@@H]21` [delta-8-THC], the “Effectiveness for the intended (antiemetic) use” value in data set [2] is “at least as effective”. Also, the Side-effects entry in data set [2] (especially in pediatric medicine) is recorded as “considerably reduced side-effects”. In data set [3], the Proneness to oxidation result is recorded as “less prone to oxidation”. Moreover, the “Stability towards various chemicals” value in data set [3] is recorded as “considerably more stable”. Further, the Prevention of vomiting result in data set [4] (8 children, 18 mg/m^2 p.o. in edible oil 2 h before antineoplastic drug, repeated every 6 h for 24 h) was “completely prevented; also recorded: no emesis was noted; also recorded: prevention of vomiting was complete”. Also, the “Effect of antiemetic treatments: side effects per patient” value in data set [4] (Table, individual child, 18 mg/m^2) is “no side effects; also recorded: slight irritability; also recorded: euphoria”. Moreover, in data set [4] (children, 18 mg/m^2 p.o.), the “Anxiety or hallucinogenic effects” value is “No anxiety or hallucinogenic effects were noted”. Moreover, the “Side effects (overall)” value in data set [4] (children, 18 mg/m^2 p.o., every 6 h for 24 h) was “negligible side effects; also recorded: minor: some irritability as slight euphoria; also recorded: without the occurrence of major side effects”. Also, the “Vomiting in patient, second treatment cycle” value in data set [4] (delta-8-THC initiated at second cycle after refusal in first cycle, 18 mg/m^2 p.o.) is recorded as “No vomiting occurred”. In the data set with Fischer rats, the Histopathological changes result was “essentially the same”. In addition, in data set [5], the LD50 at 168 h stood at 1980 mg/kg. Also, the Histopathological alterations entry in the data set on dogs and in the data set on rhesus monkeys was “did not occur” throughout. The LD50 was above 9000 mg/kg in [6] (dog, dogs) and above 9000 mg/kg in [6] (rhesus monkey, rhesus monkeys). Also, the “Vomiting after ending antiemetic therapy early” value in data set [7] is recorded as “Vomiting started in most cases”.

Take `CCCCCc1cc(O)c2c(c1)OC(C)(C)[C@@H]1CCC(C)=C[C@@H]21` [delta-9-THC, delta-9-tetrahydro-cannabinol, reference compound]: the Histopathological changes entry in the data set on Fischer rats is “essentially the same”. Also, the LD50 at 168 h in data set [5] was 1910 mg/kg. Moreover, the Histopathological alterations entry in the data set with dogs and with rhesus monkeys was “did not occur” each time. In addition, the LD50 in data set [6] (dog, dogs) was above 9000 mg/kg; in data set [6] (rhesus monkey, rhesus monkeys), above 9000 mg/kg. Moreover, the “Effect in the remaining patients” value in data set [8] (chemotherapy of cancer, the rest of treated patients) is “little or no effect”. Moreover, in data set [8] (setting [9]), the “Patients in whom vomiting and nausea is prevented” value is on record as 20 to 30 per cent. For the same molecule, in [8] (setting [9]), the “Patients in whom vomiting and nausea symptoms are reduced” value is 40 to 50 per cent. In addition, the Pronounced side effects result in data set [8] (treated patients, pronounced with elderly patients) is “drowsiness, dizziness and in some cases--anxiety”. In addition, the “Side effects in younger patients” value in data set [8] (younger patients) is on record as “mainly mood changes”.
